# Patent publication US9902725B2, “Heterocyclic derivatives as RORgamma modulators” (GENFIT, priority 2014, dated 2018)
# Legend:
# human RORγt [1] = biological target: T1, human RORγt (Homo sapiens, UniProt P51449); test: RORE luciferase/RORγt transactivation assay; format: cell-based; parameters: expressed in transfected cells; details: COS-7 cells transfected with IL-17 promoter luciferase reporter and RORγt plasmid, 20 h
# T1 sequence (P51449 1-497 isoform P51449-2): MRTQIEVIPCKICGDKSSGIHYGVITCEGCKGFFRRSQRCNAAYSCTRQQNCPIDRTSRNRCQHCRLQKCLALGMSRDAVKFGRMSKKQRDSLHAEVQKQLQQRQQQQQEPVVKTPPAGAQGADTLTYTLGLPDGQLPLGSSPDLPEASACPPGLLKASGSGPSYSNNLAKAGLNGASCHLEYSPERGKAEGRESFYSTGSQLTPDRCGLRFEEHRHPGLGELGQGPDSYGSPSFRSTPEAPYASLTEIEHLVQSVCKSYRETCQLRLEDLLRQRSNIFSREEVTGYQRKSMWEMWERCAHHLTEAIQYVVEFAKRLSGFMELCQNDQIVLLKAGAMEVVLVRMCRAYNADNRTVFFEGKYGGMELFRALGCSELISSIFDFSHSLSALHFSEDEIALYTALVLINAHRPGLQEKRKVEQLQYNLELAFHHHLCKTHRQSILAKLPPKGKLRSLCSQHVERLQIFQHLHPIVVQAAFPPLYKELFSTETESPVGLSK
# Description: It is well known that RORγ binds to a conserved non-coding sequence (CNS) enhancer element in the IL-17 promoter. Accordingly, we have used in this assay a luciferase reporter gene construct that contains the human IL-17 promoter fragment with RORγ-specific CNS enhancer element and a RORγt overexpressing plasmid, to indirectly assess the effect of compounds on RORγ activity. Inhibition of RORγ activity by test compounds will result in a decrease in luciferase activity in COS-7 cells transfected with the reporter construct.
# Monkey Kidney COS-7 cell line are maintained in a standard culture medium Dulbecco's modified Eagle's minimal (DMEM) medium supplemented with 10% fetal calf serum, 1% sodium pyruvate, 1% essential amino acids and 1% antibiotics at 37° C. in a humidified atmosphere of 5% CO2 and 95% air. Culture medium was changed every 2 days.
# The 4.3 Kb human IL-17 promoter containing the RORγ-specific CNS enhancer element was PCR amplified from human genomic DNA and cloned into a pGL3-TKLuc2Cp reporter plasmid. To overexpress RORγt, the full-length cDNA of human RORγt (identical to published sequence NM 001001523) was cloned without any restriction into pcdna3.1DV5-His-topo to generate the RORγt overexpression plasmid “RORγt_FL_h_pcDNA3.1DV5-His-TOPO_1”.
# The luciferase reporter plasmid and the RORγt overexpression plasmid were transfected into COS-7 cell line using 4 μLJetPEITM/μg of DNA. Briefly, 150 ng of DNA (ration ½ between RORE-Tk Luc2Cp and cDNA RORγt or the empty vector for the negative control) was served to transfect adherent COS-7 cells in a […] culture flask, in complete medium (see cos-7 cell line culture). Cells were incubated for 24 hours in a humidified atmosphere of 5% CO2 and 95% air
# Cells were then detached (using trypsin) and washed by centrifugation at 300 g for 10 minutes. Cell pellet was resuspended in serum free/phenol red free DMEM and seeded in 384 well plates at a density of 10000 cells/well and then incubated for 4 h at 37° C.
# Compounds were dissolved in 100% DMSO to obtain 10 mM stock solutions. For each compound, test concentrations were diluted in serum free/phenol red free DMEM using the Genesis Freedom 200™ (TECAN) and added to the cells to obtain a 0.3% DMSO final concentration (in a final volume of 40 μL per well). T091317 was used as reference compound. Cells were incubated in presence of compounds for an additional 20 h at 37° C. in a humidified atmosphere of 5% CO2 and 95% air
# The luciferase activity was then measured with 40 μL/well steady-Glo Luciferase assay system (Promega, Madison, Wis.) and after incubation at room temperature for 30 minutes. The luminescence was estimated using the Ultra384 reader (TECAN). Data were collected and analyzed using GraphPad Prism software (GraphPad Software V5.02, San Diego Calif. USA). IC50 in μM and Emax in % were reported for each compound.
# human RORγt [2] = biological target: T1, human RORγt; test: IL-17 secretion from EL4 murine lymphoma overexpressing human RORγt; format: cell-based; parameters: expressed in transfected cells; host or cells: EL-4 murine lymphoma; details: IL-17 secretion inhibition, PMA and ionomycin stimulation, 24 h
# How it was run: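 EL4 murine lymphoma cells electroporated with hRORγt plasmid, seeded 150000 cells/well, pretreated with compound, then stimulated with PMA (10 ng/mL) and ionomycin (1 μM final) with compound for a further 24 h at 37° C. IL-17 in supernatant measured by HTRF or ELISA.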
Structure (SMILES),IC50 (human RORγt [1]),IC50 (human RORγt [2])
"O=C(O)CCc1c[nH]c2ccc(CC(=O)NC(c3ccccc3)c3ccccc3N3CCCCC3)cc12 (centres unmarked) [Cpd. 1, 3-{5-[({phenyl[2-(piperidin-1-yl)phenyl]methyl}carbamoyl)methyl]-1H-indol-3-yl}propanoic acid]",< 1000 nM,1000 to 10000 nM
"O=C(O)CCc1c[nH]c2ccc(CC(=O)NC(c3cccc(F)c3)c3ccccc3N3CCCCC3)cc12 (centres unmarked) [Cpd. 3, 3-[5-({[(3-fluorophenyl)[2-(piperidin-1-yl)phenyl]methyl]carbamoyl}methyl)-1H-indol-3-yl]propanoic acid]",< 1000 nM,1000 to 10000 nM
"Cc1ccc(C(NC(=O)Cc2ccc3[nH]cc(CCC(=O)O)c3c2)c2ccccc2)c(N2CCCC2)c1 (centres unmarked) [Cpd. 5, 3-{5-[({[4-methyl-2-(pyrrolidin-1-yl)phenyl](phenyl)methyl}carbamoyl)methyl]-1H-indol-3-yl}propanoic acid]",< 1000 nM,< 1000 nM
"CC(C)CC(NC(=O)Cc1ccc2[nH]cc(CCC(=O)O)c2c1)c1ccccc1N1CCCCC1 (centres unmarked) [Cpd. 29, 3-{5-[({3-methyl-1-[2-(piperidin-1-yl)phenyl]butyl}carbamoyl)methyl]-1H-indol-3-yl}propanoic acid]",< 1000 nM,1000 to 10000 nM
"O=C(O)CCc1c[nH]c2ccc(CC(=O)NC(c3ccccc3)c3ccc(C(F)(F)F)cc3N3CCCC3)cc12 (centres unmarked) [Cpd. 48, 3-{5-[({phenyl[2-(pyrrolidin-1-yl)-4-(trifluoromethyl)phenyl]methyl}carbamoyl)methyl]-1H-indol-3-yl}propanoic acid]",–,1000 to 10000 nM
"O=C(O)CCc1c[nH]c2ccc(CC(=O)NC(c3ccccc3)c3ccc(Br)cc3N3CCCC3)cc12 (centres unmarked) [Cpd. 50, 3-{5-[({[4-bromo-2-(pyrrolidin-1-yl)phenyl](phenyl)methyl}carbamoyl)methyl]-1H-indol-3-yl}propanoic acid]",–,< 1000 nM
"Cc1ccc(C(NC(=O)Cc2ccc3[nH]cc(CCC(=O)O)c3c2)c2ccccc2)c(N2CCCCC2)c1 (centres unmarked) [Cpd. 77, 3-{5-[({[4-methyl-2-(piperidin-1-yl)phenyl](phenyl)methyl}carbamoyl)methyl]-1H-indol-3-yl}propanoic acid]",–,< 1000 nM
"COc1ccc(C(NC(=O)Cc2ccc3[nH]cc(CCC(=O)O)c3c2)c2ccccc2)c(N2CCCCC2)c1 (centres unmarked) [Cpd. 111, 3-{5-[({[4-methoxy-2-(piperidin-1-yl)phenyl](phenyl)methyl}carbamoyl)methyl]-1H-indol-3-yl}propanoic acid]",–,1000 to 10000 nM
"Cc1ccc(C(NC(=O)Cc2ccc3[nH]cc(CCC(=O)O)c3c2)c2ccccc2)c(N(C)C)c1 (centres unmarked) [Cpd. 192, 3-{5-[({[2-(dimethylamino)-4-methylphenyl](phenyl)methyl}carbamoyl)methyl]-1H-indol-3-yl}propanoic acid]",–,< 1000 nM
"O=C(O)CCCc1c[nH]c2ccc(CC(=O)NC(c3ccccc3)c3ccccc3N3CCCCC3)cc12 (centres unmarked) [Cpd. 212, 4-{5-[({phenyl[2-(piperidin-1-yl)phenyl]methyl}carbamoyl)methyl]-1H-indol-3-yl}butanoic acid]",–,1000 to 10000 nM
